US20230019094A1, “NOVEL COMPOUND AND PHARMACEUTICAL COMPOSITION FOR PREVENTION OR TREATMENT OF CANCER COMPRISING SAME” (HOLOSMEDIC, priority 2019, published 2023)

Assays:
Format in all cases: cell-based
[1] = system: SKOV3; assay: Crystal violet staining, cell survival rate and cell count, parental line; conditions: 0.05 μM paclitaxel or 0.5 μM doxetaxel, 3 days, compared to None or DMSO-treated groups
Description: (§1) The two cancer cell lines growing on a 12-well plate were pretreated with 102 S-forms at a low concentration (0.5 μM) and a high concentration (2 μM) for 4 hours, and the SKOV3-TR cell line was then treated with 4 μM paclitaxel, and the SKOV3 cell line was treated with 0.05 μM paclitaxel. For the morphological analysis of the cells, the cells treated with None (a group that was treated with nothing), DMSO (a paclitaxel solvent), ethanol (EtOH) (an S-form solvent), DMSO+EtOH, paclitaxel, paclitaxel+ethanol (Pacli+EtOH), and 102 S-forms were analyzed after 1, 2, and 3 days, and images were captured. […] The cell survival rates were analyzed on the same experimental groups using a crystal violet staining method.
The two cell lines growing on a 12-well plate were pretreated with an S-form at a low concentration (0.5 μM) and a high concentration (2 μM) for 4 hours, and the SKOV3-TR cell line was then treated with 0.9 μM doxetaxel, and the SKOV3 cell line was treated with 0.5 μM doxetaxel. For the morphological analysis of the cells, the cells treated with None (a group that was treated with nothing), DMSO (a doxetaxel solvent), ethanol (EtOH) (an S-form solvent), DMSO+EtOH, doxetaxel, doxetaxel+ethanol (Doxetaxel+EtOH), and S-forms were analyzed after 1, 2, and 3 days, and images were captured. […]

[2] = system: SKOV3-TR; assay: Crystal violet staining, cell survival rate and cell count, resistant line; conditions: 3 days; for optical density at 570 nm (crystal violet), anticancer drug alone: 4 μM paclitaxel or 0.9 μM doxetaxel, compared to None or DMSO-treated groups; for anticancer-enhancing effect of doxetaxel, optical density at 570 nm (crystal violet) / anticancer-enhancing effect of paclitaxel, optical density at 570 nm (crystal violet): S-form 0.5 μM or 2 μM pretreated 4 hours; for anticancer-enhancing effect of doxetaxel, optical density at 570 nm (crystal violet): then 0.9 μM doxetaxel, compared to doxetaxel+ethanol group; for anticancer-enhancing effect of paclitaxel, optical density at 570 nm (crystal violet): then 4 μM paclitaxel, compared to paclitaxel+ethanol group
Description: The two cancer cell lines growing on a 12-well plate were pretreated with 102 S-forms at a low concentration (0.5 μM) and a high concentration (2 μM) for 4 hours, and the SKOV3-TR cell line was then treated with 4 μM paclitaxel, and the SKOV3 cell line was treated with 0.05 μM paclitaxel. For the morphological analysis of the cells, the cells treated with None (a group that was treated with nothing), DMSO (a paclitaxel solvent), ethanol (EtOH) (an S-form solvent), DMSO+EtOH, paclitaxel, paclitaxel+ethanol (Pacli+EtOH), and 102 S-forms were analyzed after 1, 2, and 3 days, and images were captured. For cellular metabolism analysis, WST-1 analyses were performed after 3 days of the combined treatment with paclitaxel and S-forms. The cell survival rates were analyzed on the same experimental groups using a crystal violet staining method.
The two cell lines growing on a 12-well plate were pretreated with an S-form at a low concentration (0.5 μM) and a high concentration (2 μM) for 4 hours, and the SKOV3-TR cell line was then treated with 0.9 μM doxetaxel, and the SKOV3 cell line was treated with 0.5 μM doxetaxel. For the morphological analysis of the cells, the cells treated with None (a group that was treated with nothing), DMSO (a doxetaxel solvent), ethanol (EtOH) (an S-form solvent), DMSO+EtOH, doxetaxel, doxetaxel+ethanol (Doxetaxel+EtOH), and S-forms were analyzed after 1, 2, and 3 days, and images were captured. For cellular metabolism analysis, WST-1 analyses were performed after 3 days of the combined treatment with doxetaxel and S-forms. The cell survival rates were analyzed on the same experimental groups using a crystal violet staining method.
Based on the crystal violet staining in which the cell survival rates and the cell counts were analyzed, a decrease in cell counts in SKOV3-TR and SKOV3 by treatment with paclitaxel was induced through a decrease in cell survival rate. […] The crystal violet staining results of SKOV3-TR by treatment with paclitaxel are shown in FIG. 11, and the crystal violet staining results of SKOV3 are shown in FIG. 12. The crystal violet staining results of SKOV3-TR by treatment with doxetaxel are shown in FIG. 25, and the crystal violet staining results of SKOV3 are shown in FIG. 26.
The optical densities at 570 nm were reduced with the decreasing cell counts in the paclitaxel-treated groups due to the phenomena such as the induction of cell death and the inhibition of cell growth in SKOV3-TR and SKOV3, compared to the None or DMSO-treated groups. […] Also, it can be seen that the dose-response relationship was satisfied because a decrease in cell survival rate by paclitaxel in SKOV3-TR was further promoted at a high concentration (2 μM) of the S-forms as compared to a low concentration (0.5 μM) of the S-forms. For the purpose of analysis, images of the 102 experimental groups after the cell lines were stained with crystal violet were captured after 3 days of the treatment. The staining degree was determined by ELISA by measuring the optical densities at 570 nm through dye elution as in the WST-1 analysis. During the ELISA analysis, the baseline was applied to the optical density of the paclitaxel+ethanol (Pacli+EtOH)-treated group as the control group. The optical density results of SKOV3-TR by treatment with the 102 S-forms and the optical density results of SKOV3 by treatment with the 102 S-forms are shown in FIGS. 13 to 20.
The optical densities at 570 nm were reduced with the decreasing cell counts in the doxetaxel-treated groups due to the phenomena such as the induction of cell death and the inhibition of cell growth in SKOV3-TR and SKOV3, compared to the None or DMSO-treated groups. […] Also, it can be seen that the dose-response relationship was satisfied because a decrease in cell survival rate by doxetaxel in SKOV3-TR was further promoted at a high concentration (2 μM) of the S-forms as compared to a low concentration (0.5 μM) of the S-forms. […]

[3] = system: SKOV3; assay: WST-1 analysis of cellular metabolism, parental line; conditions: 0.05 μM paclitaxel or 0.5 μM doxetaxel, 3 days, compared to None or DMSO-treated groups
Description: (§2) A cell experiment was performed on an epithelial ovarian cancer cell line SKOV3 and SKOV3-TR which is derived therefrom and produced as a resistant cancer cell line to having resistance to the anticancer drug paclitaxel.
as §1
(§3) The two cell lines growing on a 12-well plate were pretreated with an S-form at a low concentration (0.5 μM) and a high concentration (2 μM) for 4 hours, and the SKOV3-TR cell line was then treated with 0.9 μM doxetaxel, and the SKOV3 cell line was treated with 0.5 μM doxetaxel. […] The cell survival rates were analyzed on the same experimental groups using a crystal violet staining method. […]

[4] = system: SKOV3-TR; assay: WST-1 analysis of cellular metabolism, resistant line; conditions: 4 μM paclitaxel or 0.9 μM doxetaxel, 3 days, compared to None or DMSO-treated groups
Description: as §2, §1, §3

Row | Structure (SMILES) | optical density at 570 nm (crystal violet), anticancer drug alone [1] | optical density at 570 nm (crystal violet), anticancer drug alone [2] | optical density at 450 nm (WST-1), anticancer drug alone [3] | optical density at 450 nm (WST-1), anticancer drug alone [4] | anticancer-enhancing effect of doxetaxel, optical density at 570 nm (crystal violet) [2] | anticancer-enhancing effect of paclitaxel, optical density at 570 nm (crystal violet) [2]
1 | CC(=O)O[C@H]1C(=O)[C@@]2(C)[C@H]([C@H](OC(=O)c3ccccc3)[C@]3(O)C[C@H](OC(=O)[C@H](O)[C@@H](NC(=O)c4ccccc4)c4ccccc4)C(C)=C1C3(C)C)[C@]1(OC(C)=O)CO[C@@H]1C[C@@H]2O [paclitaxel] | reduced | reduced | reduced | reduced | – | –
2 | CCc1sc2ccccc2c1CN1CCN2C(=O)CNC(=O)C2C1 (stereo not drawn) [S101, 2-((2-ethylbenzothiophene-3-yl)methyl)hexahydro-2H-pyrazino[1,2-a]pyrazine-6,9-dione] | – | – | – | – | exhibited the anticancer-enhancing effect | exhibited the anticancer-enhancing effect
3 | CC(=O)O[C@@]12CO[C@@H]1C[C@H](O)[C@@]1(C)C(=O)[C@H](O)C3=C(C)[C@@H](OC(=O)[C@H](O)[C@@H](NC(=O)OC(C)(C)C)c4ccccc4)C[C@@](O)([C@@H](OC(=O)c4ccccc4)[C@H]21)C3(C)C [doxetaxel] | reduced | reduced | reduced | reduced | – | –
4 | CCc1sc2ccccc2c1CN1CCN2C(=O)C(C3CCCCC3)NC(=O)C2C1 (stereo not drawn) [S105] | – | – | – | – | exhibited the anticancer-enhancing effect | exhibited the anticancer-enhancing effect
